# Results from patent US20070149485A1, “SELECTED DOSAGE FOR THE TREATMENT OF CARDIOVASCULAR AND RELATED PATHOLOGIES” (Medicure International, Inc., priority 2005, published 2007).
# Assays:
# [1] = tested on: high-risk patients undergoing CABG surgery with cardiopulmonary bypass; assay: Intravenous P5P in high-risk patients undergoing CABG surgery (Example 2, protocol of Example 1 repeated); format: in vivo, human; details: CK-MB cut-off 100 ng/ml
# Description: The randomized, double-blind placebo-controlled, dose-ranging, parallel-arm multi-center study on high-risk patients undergoing CABG surgery with cardiopulmonary bypass of Experiment 1 is repeated using a protocol as described in Experiment 1, with the difference that the placebo/drug is administered intravenously, in an intravenous dose pharmacokinetically approximating the dosage given enterally in Experiment 1.
# Approximately 3000 high-risk pre-CABG patients are screened and randomized to […], prior to their bypass surgery, as follows. Patients are either placed in a control group (placebo), treated intravenously with 5.00 mg/day of P5P, or treated intravenously with 23.33 mg/day of P5P.
# Patients are identified as “high risk” if they had two or more of the following risk factors:
# • Age greater than 65 years; • Current smoker; • History of diabetes mellitus requiring treatment other than diet; • Evidence of left ventricular dysfunction or congestive heart failure; • History of a previous non-disabling stroke, transient ischemic attack, or carotid endarterectomy; • Urgent CABG intervention defined as the need to stay in the hospital (although the patient may be operated on within a normal scheduling routine); • History of myocardial infarction that occurred more than 48 hours but less than 6 weeks prior to CABG surgery; • Prior peripheral artery surgery or angioplasty; • Moderate renal dysfunction defined as creatinine>133 μmol/L (1.5 mg/dl), but <250 μmol/L (2.8 mg/dl); and • Presence of at least one asymptomatic carotid artery stenosis (>50%) either in one or two carotid arteries.
# The first dose of study medication is administered at 3-10 hours prior to CABG surgery. In the event of surgery delay or rescheduling, a second pre-operative dose of P5P is administered so that all patients receive study medication 3-10 hours before surgery. Treatment continues for 30 days after surgery (post operative day (POD) 30). Patients receive follow-up evaluations up to and including postoperative day on POD 30 and on POD 90.
# Patients are measured for combined incidence of cardiovascular death and nonfatal myocardial infarction (MI) up to and including post-operative day 30 (POD 30). Patients are also measured for nonfatal myocardial infarction alone.
# All deaths without an identifiable non-cardiovascular cause are considered of cardiovascular origin.
# Cerebral infarction (stroke) is defined clinically as any new sudden onset focal neurological deficit lasting at least 24 hours as assessed by a neurologist and after neuroimaging (computed tomography [CT] brain scan or magnetic resonance imaging [MRI]) excludes an intracerebral hemorrhage. […]
# [2] = tested on: animal model of ischemic brain injury; details: animal model of ischemic brain injury (Wang, et al, J. Neurosurg. 2005); cited from earlier work
smiles,measurement,setting,value
"Cc1ncc(COP(=O)(O)O)c(C=O)c1O [P5P, 3-hydroxy-2-methyl-5-[(phosphonooxy)methyl]-4-pyridine-carboxaldehyde]",reducing instances of myocardial infarction,[1]; intravenous 5.00 mg/day,highly effective
same,"reducing total incidents (myocardial infarction, cerebral infarction, or death)","[1]; intravenous 5.00 mg/day, better than 23.33 mg/day",highly effective
same,reducing instances of myocardial infarction,[1]; intravenous 23.33 mg/day,highly effective
same,"reducing total incidents (myocardial infarction, cerebral infarction, or death)",[1]; intravenous 23.33 mg/day,highly effective
same,neuroprotective effects,[2],neuroprotective effects
